Data taken from patent US20230322846A9, “NEUROACTIVE STEROIDS AND THEIR METHODS OF USE” (SAGE THERAPEUTICS, INC., priority 2018, published 2023).

Columns and labels:
[1] = target: [35S]-TBPS binding, rat brain cortical membranes; assay: Steroid inhibition of [35S]-TBPS binding; conditions: 3 nM [35S]-TBPS, in the presence of 5 mM GABA
How it was run: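 Rat cortical P2 membranes incubated 90 min at room temperature with 3 nM [35S]-TBPS, […] and test compound (0.5% DMSO final) in NaCl/Na–K phosphate pH 7.4; nonspecific binding with […]. Filter-bound radioactivity counted; IC50 and Imax from nonlinear fits, mean ± SEM.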

[2] = target: human GABAA receptors composed of the α1β2γ2 subunits (Homo sapiens (Human), UniProt P14867+P18507+P47870); assay: α1β2γ2 SyncroPatch automated patch clamp assay; assay type: cell-based; conditions: for EC50: HEK cells, potentiation of submaximal GABA current, clamped at −120 mV; for α1β2γ2 EMAX: peak current after GABA+compound divided by peak current after GABA alone
Chain of human GABAA receptors composed of the α1β2γ2 subunits (P14867 28-456 limits assumed): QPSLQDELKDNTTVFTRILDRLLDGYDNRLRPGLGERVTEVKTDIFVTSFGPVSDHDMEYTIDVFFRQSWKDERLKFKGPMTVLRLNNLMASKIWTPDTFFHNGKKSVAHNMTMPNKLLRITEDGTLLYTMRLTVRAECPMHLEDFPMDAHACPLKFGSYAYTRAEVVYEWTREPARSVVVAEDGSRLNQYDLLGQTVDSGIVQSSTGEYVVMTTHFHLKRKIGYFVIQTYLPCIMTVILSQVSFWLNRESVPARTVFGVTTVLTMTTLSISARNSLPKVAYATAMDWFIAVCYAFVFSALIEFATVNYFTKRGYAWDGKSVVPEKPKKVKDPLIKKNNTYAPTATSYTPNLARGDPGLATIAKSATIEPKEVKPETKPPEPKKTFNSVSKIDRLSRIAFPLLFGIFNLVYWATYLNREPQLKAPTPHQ
Chain of human GABAA receptors composed of the α1β2γ2 subunits (P47870 25-512 limits assumed): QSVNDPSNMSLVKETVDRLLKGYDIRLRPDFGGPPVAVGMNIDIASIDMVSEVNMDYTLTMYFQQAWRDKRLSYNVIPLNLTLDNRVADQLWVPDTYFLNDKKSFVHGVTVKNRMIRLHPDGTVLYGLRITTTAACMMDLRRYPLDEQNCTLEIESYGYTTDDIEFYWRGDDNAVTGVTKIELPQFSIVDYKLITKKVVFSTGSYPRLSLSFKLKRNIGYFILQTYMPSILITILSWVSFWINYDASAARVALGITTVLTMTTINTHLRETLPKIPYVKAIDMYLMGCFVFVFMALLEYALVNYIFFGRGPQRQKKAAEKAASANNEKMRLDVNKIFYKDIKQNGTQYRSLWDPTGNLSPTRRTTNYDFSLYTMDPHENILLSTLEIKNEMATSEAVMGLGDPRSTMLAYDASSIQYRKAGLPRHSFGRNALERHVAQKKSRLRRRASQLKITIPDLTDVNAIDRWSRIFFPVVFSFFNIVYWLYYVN
Chain of human GABAA receptors composed of the α1β2γ2 subunits (P18507 40-475 limits assumed): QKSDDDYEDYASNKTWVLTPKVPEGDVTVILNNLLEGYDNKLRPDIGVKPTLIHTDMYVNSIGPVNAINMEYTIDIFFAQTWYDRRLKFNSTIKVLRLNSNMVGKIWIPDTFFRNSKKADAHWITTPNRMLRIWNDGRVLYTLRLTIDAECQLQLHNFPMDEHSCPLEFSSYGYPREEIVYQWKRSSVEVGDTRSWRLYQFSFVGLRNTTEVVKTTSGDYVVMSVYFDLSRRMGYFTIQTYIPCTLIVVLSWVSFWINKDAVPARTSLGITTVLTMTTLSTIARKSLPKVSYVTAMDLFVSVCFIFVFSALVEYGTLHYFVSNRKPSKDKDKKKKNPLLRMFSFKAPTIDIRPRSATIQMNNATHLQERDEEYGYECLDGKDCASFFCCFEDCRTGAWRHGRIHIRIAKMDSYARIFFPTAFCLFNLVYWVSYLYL
Procedure: (§1) The SyncroPatch 384PE (Nanion, Germany) automated patch clamp platform was used to obtain recordings from human embryonic kidney cells stably expressing human GABAA receptors composed of the α1β2γ2 and α4β3δ subunits. Cells were bathed in an extracellular solution containing: 140 mM NaCl, 4 mM KCl, 2 mM CaCl2), 1 mM MgCl2, 10 mM HEPES, 5 mM glucose and 0.1% DMSO. Solution was maintained at pH 7.4 with NaOH and 300 mOsm/L. Chips with multi-hole (4×) medium resistance (2-3M) are used for the recombinant cell line experiments. Once harvested, cells are stored in extracellular solution set to 10° C. in the cell hotel with a minimum shaking speed of 200 rpm before addition to the chip at the beginning of each experiment. Whole cell patch clamp recordings were made using an intracellular solution containing: 90 mM KCl, 50 mM KF, 1.5 mM MgCl2, 11.1 mM EGTA and 10 mM HEPES, 2 mM NaATP, maintained at pH 7.2 with KOH. Currents are leak corrected (using P/2 leak correction protocol) and sampled at 5 kHz. Cells were clamped at −120 mV. After establishing a stable baseline, a submaximal concentration of GABA (3-5 μM for cells expressing α1β2γ2 and 10 μM for cells expressing […]) was applied at a rate of 10 μl/second, immediately followed by application of GABA+compound (10 μl/second) at a single concentration of compound per cell. Compounds were tested at six concentrations (0.029, 0.12, 0.47, 1.88, 7.5, and 30 μM) in n=8-12 cells per concentration. Compound effect was determined by dividing peak current amplitude after GABA+compound by peak current amplitude after GABA alone. EC50 and Emax values were determined from average values for each concentration.

[3] = target: human GABAA receptors composed of the α4β3δ subunits (Homo sapiens (Human), UniProt O14764+P28472+P48169); assay: α4β3δ SyncroPatch automated patch clamp assay; assay type: cell-based; conditions: for EC50: HEK cells, potentiation of submaximal GABA current, clamped at −120 mV; for α4β3δ EMAX: peak current after GABA+compound divided by peak current after GABA alone
Chain of human GABAA receptors composed of the α4β3δ subunits (P48169 36-554 limits assumed): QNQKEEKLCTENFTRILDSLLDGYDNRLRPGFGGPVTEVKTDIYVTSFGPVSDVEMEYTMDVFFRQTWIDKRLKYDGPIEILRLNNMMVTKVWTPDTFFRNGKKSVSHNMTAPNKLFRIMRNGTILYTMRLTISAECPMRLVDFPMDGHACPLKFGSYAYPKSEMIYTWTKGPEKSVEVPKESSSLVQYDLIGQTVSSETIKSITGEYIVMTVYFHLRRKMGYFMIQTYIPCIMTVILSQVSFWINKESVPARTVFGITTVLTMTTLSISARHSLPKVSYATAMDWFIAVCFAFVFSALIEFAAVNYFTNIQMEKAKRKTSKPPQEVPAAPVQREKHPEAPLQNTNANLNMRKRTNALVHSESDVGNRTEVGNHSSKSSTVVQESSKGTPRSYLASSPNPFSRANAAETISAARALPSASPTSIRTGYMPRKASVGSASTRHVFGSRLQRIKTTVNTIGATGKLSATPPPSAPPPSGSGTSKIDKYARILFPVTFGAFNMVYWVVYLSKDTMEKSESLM
Chain of human GABAA receptors composed of the α4β3δ subunits (P28472 26-473 limits assumed): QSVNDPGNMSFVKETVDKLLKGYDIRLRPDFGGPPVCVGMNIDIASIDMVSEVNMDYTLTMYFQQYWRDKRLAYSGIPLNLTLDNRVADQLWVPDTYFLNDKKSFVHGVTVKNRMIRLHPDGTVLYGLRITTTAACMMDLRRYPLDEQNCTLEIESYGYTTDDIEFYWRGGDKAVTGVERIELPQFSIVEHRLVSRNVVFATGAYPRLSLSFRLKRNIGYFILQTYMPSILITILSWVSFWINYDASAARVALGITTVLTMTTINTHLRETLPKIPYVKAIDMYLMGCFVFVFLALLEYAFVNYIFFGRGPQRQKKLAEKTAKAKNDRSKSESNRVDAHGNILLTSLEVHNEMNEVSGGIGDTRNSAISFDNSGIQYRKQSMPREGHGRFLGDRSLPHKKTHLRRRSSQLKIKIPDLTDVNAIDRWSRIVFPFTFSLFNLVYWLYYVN
Chain of human GABAA receptors composed of the α4β3δ subunits (O14764 17-452 limits assumed): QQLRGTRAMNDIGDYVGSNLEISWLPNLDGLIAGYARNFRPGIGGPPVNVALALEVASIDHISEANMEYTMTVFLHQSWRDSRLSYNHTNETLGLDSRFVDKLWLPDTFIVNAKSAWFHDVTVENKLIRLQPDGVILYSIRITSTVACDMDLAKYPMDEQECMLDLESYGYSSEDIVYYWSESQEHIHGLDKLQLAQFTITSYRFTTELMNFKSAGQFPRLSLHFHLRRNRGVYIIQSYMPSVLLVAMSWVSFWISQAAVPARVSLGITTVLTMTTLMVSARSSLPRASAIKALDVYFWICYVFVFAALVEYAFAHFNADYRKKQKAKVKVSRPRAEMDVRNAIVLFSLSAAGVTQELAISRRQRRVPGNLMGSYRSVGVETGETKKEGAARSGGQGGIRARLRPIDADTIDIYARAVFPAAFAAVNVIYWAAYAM
Procedure: as §1

**Q.** Which IC50 [1] does the source give for `CCC[C@@]1(O)CC[C@H]2[C@H](CC[C@@H]3[C@@H]2CC[C@]2(C)[C@@H]([C@H](C)Cn4nnc(C)n4)CC[C@@H]32)C1` [Example 293, (3R,5R,8R,9R,10S,13S,14S,17R)-13-methyl-17-((S)-1-(5-methyl-2H-tetrazol-2-yl)propan-2-yl)-3-propylhexadecahydro-1H-cyclopenta[a]phenanthren-3-ol] here?
**A.** Its IC50 is < 100 nM.

**Q.** And the EC50 [2]?
**A.** The EC50 was ≥ 1000 nM.

**Q.** And the “α1β2γ2 EMAX” value [2]?
**A.** Its value is “A (A indicates an Emax response <8)”.

**Q.** And the EC50 [3]?
**A.** Its EC50 is 200 to 1000 nM.

**Q.** What about the “α4β3δ EMAX” value [3] of the same compound?
**A.** The value was “A (A indicates an Emax response <30)”.

**Q.** With `C[C@@H](Cc1nc(C(F)(F)F)cs1)[C@H]1CC[C@H]2[C@@H]3CC[C@@H]4C[C@](C)(O)CC[C@]4(C)[C@H]3CC[C@]12C` [Example 453] as the compound, how does the IC50 [1] read?
**A.** The IC50 was < 100 nM.

**Q.** What about the EC50 [2] of the same compound?
**A.** The EC50 was 200 to 1000 nM.

**Q.** What about the “α1β2γ2 EMAX” value [2] of the same compound?
**A.** Its value is “A (A indicates an Emax response <8)”.

**Q.** What about the EC50 [3] of the same compound?
**A.** The EC50 was < 200 nM.

**Q.** What about the “α4β3δ EMAX” value [3] of the same compound?
**A.** The value was “A (A indicates an Emax response <30)”.

**Q.** `CCOC[C@@]1(O)CC[C@H]2[C@H](CC[C@@H]3[C@@H]2CC[C@]2(C)[C@@H]([C@H](CC)Cn4ccc(C#N)n4)CC[C@@H]32)C1` [Example 499, 1-((S)-2-((3R,5R,8R,9R,10S,13S,14S,17R)-3-(ethoxymethyl)-3-hydroxy-13-methylhexadecahydro-1H-cyclopenta[a]phenanthren-17-yl)butyl)-1H-pyrazole-3-carbonitrile] was tested. Which IC50 [1] did it give?
**A.** Its IC50 is < 100 nM.

**Q.** And the EC50 [2]?
**A.** The EC50 was < 200 nM.

**Q.** What about the “α1β2γ2 EMAX” value [2] of the same compound?
**A.** The value was “A (A indicates an Emax response <8)”.

**Q.** And the EC50 [3]?
**A.** Its EC50 is < 200 nM.

**Q.** And the “α4β3δ EMAX” value [3]?
**A.** Its value is “A (A indicates an Emax response <30)”.

**Q.** Which results are given for `C[C@@H](Cn1cc(C#N)cn1)[C@H]1CC[C@H]2[C@@H]3CC[C@@H]4C[C@@](O)(C5CC5)CC[C@@H]4[C@H]3CC[C@]12C` [Example 341, 1-((R)-2-((3R,5R,8R,9R,10S,13S,14S,17R)-3-cyclopropyl-3-hydroxy-13-methylhexadecahydro-1H-cyclopenta[a]phenanthren-17-yl)propyl)-1H-pyrazole-4-carbonitrile]?
**A.** IC50 [1]: < 100 nM; EC50 [2]: < 200 nM; α1β2γ2 EMAX [2]: A (A indicates an Emax response <8); EC50 [3]: < 200 nM; α4β3δ EMAX [3]: A (A indicates an Emax response <30)

**Q.** Which IC50 [1] does the source give for `CCC[C@@]1(O)CC[C@H]2[C@@H](CC[C@@H]3[C@@H]2CC[C@]2(C)[C@@H]([C@@H](C)Cn4nnnc4C)CC[C@@H]32)C1` [Example 332, (3R,5S,8R,9R,10S,13S,14S,17R)-13-methyl-17-((R)-1-(5-methyl-1H-tetrazol-1-yl)propan-2-yl)-3-propylhexadecahydro-1H-cyclopenta[a]phenanthren-3-ol] here?
**A.** The IC50 was 100 to 1000 nM.

**Q.** What about the EC50 [2] of the same compound?
**A.** The EC50 was < 200 nM.

**Q.** And the “α1β2γ2 EMAX” value [2]?
**A.** Its value is “A (A indicates an Emax response <8)”.

**Q.** And the EC50 [3]?
**A.** Its EC50 is 200 to 1000 nM.

**Q.** And the “α4β3δ EMAX” value [3]?
**A.** The value was “A (A indicates an Emax response <30)”.

**Q.** Which IC50 [1] does the source give for `CCOC[C@@]1(O)CC[C@@]2(C)[C@H](CC[C@@H]3[C@@H]2CC[C@]2(C)[C@@H]([C@@H](C)Cn4nccc4C#N)CC[C@@H]32)C1` [Example 280, 1-((R)-2-((3R,5R,8R,9S,10S,13S,14S,17R)-3-(ethoxymethyl)-3-hydroxy-10,13-dimethylhexadecahydro-1H-cyclopenta[a]phenanthren-17-yl)propyl)-1H-pyrazole-5-carbonitrile] here?
**A.** Its IC50 is < 100 nM.

**Q.** What about the EC50 [2] of the same compound?
**A.** Its EC50 is < 200 nM.

**Q.** What about the “α1β2γ2 EMAX” value [2] of the same compound?
**A.** The value was “C (C indicates an Emax response ≥10)”.

**Q.** What about the EC50 [3] of the same compound?
**A.** Its EC50 is < 200 nM.

**Q.** And the “α4β3δ EMAX” value [3]?
**A.** The value was “B (B indicates an Emax response 30 to <45)”.

**Q.** How did the IC50 [1] turn out when `CCOC[C@@]1(O)CC[C@H]2[C@H](CC[C@@H]3[C@@H]2CC[C@]2(C)[C@@H]([C@H](C)Cn4ccc(C#N)n4)CC[C@@H]32)C1` [Example 287, 1-((S)-2-((3R,5R,8R,9R,10S,13S,14S,17R)-3-(ethoxymethyl)-3-hydroxy-13-methylhexadecahydro-1H-cyclopenta[a]phenanthren-17-yl)propyl)-1H-pyrazole-3-carbonitrile] was run?
**A.** Its IC50 is < 100 nM.

**Q.** And the EC50 [2]?
**A.** The EC50 was 200 to 1000 nM.

**Q.** What about the “α1β2γ2 EMAX” value [2] of the same compound?
**A.** Its value is “B (B indicates an Emax response 8 to <10)”.

**Q.** What about the EC50 [3] of the same compound?
**A.** Its EC50 is 200 to 1000 nM.

**Q.** And the “α4β3δ EMAX” value [3]?
**A.** Its value is “A (A indicates an Emax response <30)”.
